Source: ChEMBL document CHEMBL1201862, “PubChem BioAssay data set” (2004)
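Where inhibition never reached the appropriate level, the endpoint shown equals the highest concentration tested. Otherwise, values were interpolated linearly from a five-concentration, 48-hour dose response in 96-well plates. GI50: concentration for 50% inhibition of growth.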 The source made the active and inactive calls. No stated cut-off is given here; in the data, active = GI50 up to about 1.1 µM and inactive = higher.

Assays:
Assay in all cases: inhibition of tumour cell growth, NCI panel, 48 h
HCC 2998 = test system: HCC 2998
PC-3 = test system: PC-3
NCI-H226 = test system: NCI-H226
SK-OV-3 = test system: SK-OV-3
SK-MEL-2 = test system: SK-MEL-2
SF-295 = test system: SF-295
CCRF-CEM = test system: CCRF-CEM
UACC-62 = test system: UACC-62
MDA-N = test system: MDA-N
HCT-116 = test system: HCT-116
CAKI-1 = test system: CAKI-1
786-0 = test system: 786-0
M14 = test system: M14
SK-MEL-28 = test system: SK-MEL-28
RPMI-8226 = test system: RPMI-8226
NCI-H460 = test system: NCI-H460
MOLT-4 = test system: MOLT-4
SNB-75 = test system: SNB-75
NCI-H522 = test system: NCI-H522

Measured: GI50

O=C1Nc2ccc(Br)cc2/C1=N/N1C(=O)C(=O)N(C2CCCCC2)C1=S
inactive: HCC 2998 3.64 µM | PC-3 3.52 µM | NCI-H226 7.03 µM | SK-OV-3 4.33 µM | SK-MEL-2 1.41 µM | SF-295 3.16 µM | CCRF-CEM 2.21 µM | UACC-62 3.05 µM | MDA-N 2.02 µM | HCT-116 2.72 µM | CAKI-1 3.1 µM | 786-0 5.46 µM | M14 1.64 µM | SK-MEL-28 4.07 µM | RPMI-8226 4.25 µM | NCI-H460 3.66 µM | MOLT-4 2.26 µM

COC(=O)[C@H](C)[C@@H]1CC[C@](C)(CCC2=C(C)CCCC2(C)C)OO1
inactive: HCC 2998 > 25 µM | PC-3 > 25 µM | SK-OV-3 > 25 µM | SK-MEL-2 > 25 µM | SF-295 > 25 µM | CCRF-CEM 19.5 µM | UACC-62 > 25 µM | MDA-N > 25 µM | HCT-116 > 25 µM | CAKI-1 > 25 µM | SNB-75 > 25 µM | NCI-H522 16.1 µM | 786-0 > 25 µM | M14 > 25 µM | SK-MEL-28 > 25 µM | RPMI-8226 > 25 µM | NCI-H460 > 25 µM | MOLT-4 > 25 µM

O=C(Cn1c2c(c3ccccc31)CCCC2)N1CCCC1
inactive: HCC 2998 > 100 µM | PC-3 > 100 µM | SK-OV-3 > 100 µM | SK-MEL-2 > 100 µM | SF-295 61.8 µM | UACC-62 78.5 µM | MDA-N > 100 µM | HCT-116 63.1 µM | CAKI-1 > 100 µM | 786-0 > 100 µM | M14 > 100 µM | SK-MEL-28 > 100 µM | RPMI-8226 > 100 µM | NCI-H460 > 100 µM

CC1(C)CC(=O)C2=C(C1)NC1=C(C2)C(=O)CC(C)(C)C1
inactive: HCC 2998 > 100 µM | PC-3 > 100 µM | NCI-H226 > 100 µM | SK-OV-3 > 100 µM | SF-295 > 100 µM | CCRF-CEM > 100 µM | UACC-62 > 100 µM | MDA-N > 100 µM | HCT-116 > 100 µM | CAKI-1 > 100 µM | SNB-75 > 100 µM | 786-0 > 100 µM | M14 > 100 µM | SK-MEL-28 > 100 µM | RPMI-8226 > 100 µM | NCI-H460 > 100 µM | MOLT-4 > 100 µM

COc1cc(/C=C2\N=C(c3ccccc3)N(c3nc4c(OC)ccc(OC)c4s3)C2=O)cc(OC)c1OC
inactive: HCC 2998 > 100 µM | PC-3 59.7 µM | SK-OV-3 > 100 µM | SK-MEL-2 > 100 µM | SF-295 > 100 µM | CCRF-CEM 31.2 µM | UACC-62 66.1 µM | MDA-N 35.8 µM | HCT-116 66.8 µM | CAKI-1 > 100 µM | SNB-75 > 100 µM | NCI-H522 35.7 µM | 786-0 55 µM | M14 > 100 µM | SK-MEL-28 > 100 µM | RPMI-8226 43 µM | NCI-H460 > 100 µM | MOLT-4 35.2 µM

CCCCCCCC1(N=[N+]=[N-])C(=O)Nc2ccccc2C1=O (stereo not given)
inactive: HCC 2998 20.6 µM | PC-3 11.5 µM | SK-OV-3 15.7 µM | SK-MEL-2 16.8 µM | SF-295 17.3 µM | CCRF-CEM 17.1 µM | UACC-62 11.3 µM | MDA-N 19.8 µM | HCT-116 17.3 µM | CAKI-1 14.7 µM | SNB-75 14 µM | 786-0 16.6 µM | M14 17.7 µM | SK-MEL-28 16.1 µM | RPMI-8226 25.5 µM | NCI-H460 21.4 µM | MOLT-4 10.4 µM

N#Cc1c(N)n(-c2cccc(C(=O)O)c2)c(=O)c2cc([N+](=O)[O-])ccc12
inactive: HCC 2998 > 100 µM | PC-3 42 µM | NCI-H226 > 100 µM | SK-MEL-2 > 100 µM | UACC-62 > 100 µM | MDA-N > 100 µM | HCT-116 > 100 µM | CAKI-1 > 100 µM | SNB-75 > 100 µM | 786-0 > 100 µM | SK-MEL-28 > 100 µM | RPMI-8226 > 100 µM | NCI-H460 > 100 µM

CC1=NNC(=O)C1C1CC(c2c[nH]c3ccccc23)=NN(C(N)=O)C1=O (stereo not given)
inactive: PC-3 65.3 µM | NCI-H226 > 100 µM | SK-OV-3 > 100 µM | SK-MEL-2 > 100 µM | SF-295 61.2 µM | CCRF-CEM 31 µM | UACC-62 80.7 µM | MDA-N 68.7 µM | HCT-116 83.2 µM | CAKI-1 > 100 µM | SNB-75 87.3 µM | NCI-H522 31.8 µM | 786-0 > 100 µM | M14 > 100 µM | SK-MEL-28 > 100 µM | RPMI-8226 30.8 µM | NCI-H460 62.4 µM | MOLT-4 33.7 µM

FC1(F)SC2CCCCCCCCCCC2C1(F)F (stereo not given)
inactive: PC-3 42.6 µM | NCI-H226 33.3 µM | SK-OV-3 61.7 µM | SK-MEL-2 18.2 µM | SF-295 28.6 µM | CCRF-CEM 19.2 µM | UACC-62 33.9 µM | MDA-N 37.6 µM | HCT-116 18.4 µM | CAKI-1 59.6 µM | SNB-75 30.6 µM | NCI-H522 21.8 µM | 786-0 56.4 µM | M14 39.7 µM | SK-MEL-28 18.5 µM | RPMI-8226 59.7 µM | MOLT-4 28.2 µM

CC1(c2ccc(Cl)cc2)CC(c2ccc(Cl)cc2)=C(C#N)C(=C(C#N)C#N)N1 (stereo not given)
inactive: HCC 2998 13.2 µM | PC-3 16.4 µM | NCI-H226 18.5 µM | SK-OV-3 16.9 µM | SK-MEL-2 22.9 µM | SF-295 14.7 µM | CCRF-CEM 3.11 µM | UACC-62 15.3 µM | MDA-N 19 µM | HCT-116 14.6 µM | CAKI-1 16.8 µM | SNB-75 19.4 µM | 786-0 11.1 µM | M14 18.5 µM | SK-MEL-28 32.7 µM | RPMI-8226 8.77 µM | NCI-H460 22.9 µM | MOLT-4 6.81 µM

Cc1c(C(=O)N2CCN(c3ccc([N+](=O)[O-])cc3)CC2)[n+]([O-])c2cc(Cl)c(Cl)cc2[n+]1[O-]
inactive: HCC 2998 13.2 µM | PC-3 19.1 µM | SK-OV-3 15.9 µM | SK-MEL-2 31.3 µM | SF-295 19.1 µM | CCRF-CEM > 100 µM | UACC-62 15.8 µM | MDA-N 26.7 µM | HCT-116 19 µM | CAKI-1 25.1 µM | NCI-H522 16.7 µM | 786-0 16.5 µM | M14 27.1 µM | SK-MEL-28 26.4 µM | RPMI-8226 15.6 µM | NCI-H460 19.5 µM | MOLT-4 72.8 µM

C[C@H]1S[C@H](c2c(Cl)cccc2Cl)N2Cc3ccccc3N=C12
inactive: HCC 2998 14.4 µM | PC-3 14.5 µM | SK-OV-3 17.7 µM | SK-MEL-2 10.1 µM | SF-295 9.16 µM | CCRF-CEM 21 µM | UACC-62 9.82 µM | MDA-N 21 µM | HCT-116 4.35 µM | CAKI-1 40.6 µM | SNB-75 14.1 µM | 786-0 8.49 µM | M14 11.6 µM | RPMI-8226 16 µM | NCI-H460 11.3 µM | MOLT-4 8.83 µM
